Where two headings read alike, the source gives them in different places.
Assays:
Test in all cases: MIC/MBC antibiotic sensitivity (CLSI)
Format in all cases: cell-based
[1] = system: Burkholderia cenocepacia (CBC 023)
Method: (§1) The new compounds of the invention were synthesized following the general method of preparation (Tetrahedron, 2001, 57, 1671-1675), from the reaction between an intermediary compound of the acyl thiourea and HgCl2 in presence of trimethylamine. The products were adequately characterized regarding its chemistry. The antibacterial activity of the new compounds was assayed against two Gram-positive reference strains: Staphylococcus aureus (ATCC6538) and Bacillus cereus (ATCC10876), a fermenting Gram-negative strain: Escherichia coli (ATCC25922), and 26 non-fermenting Gram-negative isolates, including 3 reference strains: Pseudomonas aeruginosa (PAO1), Bordetella bronchiseptica (9.73H+), and Inquilinus limosus (DSM16000), and 23 isolates recovered from patients suffering from cystic fibrosis, including one Achromobacter xylosoxidans isolate, and 22 isolates belonging to the Burkholderia cepacia complex. The later were selected because they presented resistance to a high number of antimicrobial compounds, among a panel of 125 clinical isolates previously analyzed for its resistance against 17 antimicrobial compounds (1,2). The antibiotic sensitivity studies were performed by applying two quantitative methods which allow to determine the minimum inhibitory concentration (MIC) and the minimum bactericidal concentration (MBC).
(§2) The compounds obtained in Examples 1 and 2 were assayed against 23 isolates recovered from the sputum of patients suffering from cystic fibrosis being treated at the Sor Maria Ludovica Children Hospital (La Plata, Buenos Aires, Argentina). Nineteen of these isolates were selected for being highly resistant to most of the antimicrobial agents of clinical use from a panel of 125 isolates previously characterized in Martina et al. (1). Reference strains were also included: Gram (+) bacteria: B. cereus and S. aureus, fermenting Gram (−) bacteria: E. coli, and non-fermenting Gram (−) bacteria: Inquilinus limosus (DSM16000), B. bronchiseptica, and Pseudomonas aeruginosa (PAO1). The antibiotic sensitivity studies were performed applying two quantitative methods which allow to determine the minimum inhibitory concentration (MIC) and the minimum bactericidal concentration (MBC) according to the criteria established by the Clinical and Laboratory Standards Institute (CLSI) (4). For comparative purposes, three antibiotics commonly used in the treatment of pulmonary infections in cystic fibrosis patients were included in the study: tobramycin, ceftazidime and meropenem.

[2] = system: Burkholderia multivorans (CBC 022)
Method: as §1, §2

B. contaminans (HNBC001) = system: B. contaminans (HNBC001)
Method: as §1, §2

[3] = system: Burkholderia cenocepacia (CBC 035); conditions: for MBC: read-out: MBC
Method: as §1, §2

[4] = system: Burkholderia cenocepacia (CBC 024); conditions: for MBC: read-out: MBC
Method: as §1, §2

[5] = system: Burkholderia multivorans (CBC 016); conditions: for MBC: read-out: MBC
Method: as §1, §2

[6] = system: Inquilinus limosus (DSM16000); conditions: for MIC: read-out: MIC
Method: as §1, §2

[7] = system: Burkholderia cenocepacia (CBC 032); conditions: for MBC: read-out: MBC
Method: as §1, §2

[8] = system: Pseudomonas aeruginosa (PAO1); conditions: Pseudomonas aeruginosa, P. aeruginosa (PAO1); for MBC: read-out: MBC; for MIC: read-out: MIC
Method: as §1, §2

[9] = system: Burkholderia cepacia (CBC 011)
Method: as §1, §2

[10] = system: Burkholderia seminalis (CBC 040)
Method: as §1, §2

[11] = system: Burkholderia cenocepacia (HE001)
Method: as §1, §2

[12] = system: Burkholderia multivorans (CBC 021)
Method: as §1, §2

[13] = system: Burkholderia seminalis (CBC 042)
Method: as §1, §2

[14] = system: Burkholderia multivorans (CBC 018); conditions: for MBC: read-out: MBC
Method: as §1, §2

[15] = system: Bordetella bronchiseptica (9.73H+); conditions: B. bronchiseptica (9.73H+); for MBC: read-out: MBC; for MIC: read-out: MIC
Method: as §1, §2

[16] = system: Burkholderia cenocepacia (CBC 031); conditions: for MBC: read-out: MBC
Method: as §1, §2

[17] = system: Burkholderia multivorans (CBC 019)
Method: as §1, §2

[18] = system: Bacillus cereus (ATCC10876); conditions: for MBC: read-out: MBC; for MIC: read-out: MIC
Method: as §1, §2

[19] = system: Burkholderia multivorans (CBC 015); conditions: for MBC: read-out: MBC
Method: as §1, §2

[20] = system: Burkholderia multivorans (CBC 020)
Method: as §1, §2

[21] = system: Burkholderia cepacia (CBC 010)
Method: as §1, §2

[22] = system: Escherichia coli (ATCC25922); conditions: for MBC / MIC: Escherichia coli, E. coli (ATCC25922); for MBC: read-out: MBC; for MIC: read-out: MIC; for Selectivity Index (SI): ratio IC50 (THP-I) / MIC for E. coli
Method: as §1, §2

[23] = system: Burkholderia cenocepacia (CBC 029); conditions: for MBC: read-out: MBC
Method: as §1, §2

[24] = Burkholderia cenocepacia (CBC 023)
[25] = Burkholderia cenocepacia (CBC 023), read-out: MIC
[26] = Burkholderia multivorans (CBC 022)
[27] = Burkholderia multivorans (CBC 022), read-out: MIC
[28] = Burkholderia cenocepacia (CBC 035)
[29] = Burkholderia cenocepacia (CBC 035), read-out: MIC
[30] = Burkholderia cenocepacia (CBC 024)
[31] = Burkholderia cenocepacia (CBC 024), read-out: MIC
[32] = Burkholderia multivorans (CBC 016)
[33] = Burkholderia multivorans (CBC 016), read-out: MIC
[34] = Burkholderia cenocepacia (CBC 032)
[35] = Burkholderia cenocepacia (CBC 032), read-out: MIC
[36] = Burkholderia cepacia (CBC 011), read-out: MIC
[37] = Burkholderia seminalis (CBC 040)
[38] = Burkholderia seminalis (CBC 040), read-out: MIC
[39] = Burkholderia cenocepacia (HE001)
[40] = Burkholderia cenocepacia (HE001), read-out: MIC
[41] = Burkholderia multivorans (CBC 021)
[42] = Burkholderia multivorans (CBC 021), read-out: MIC
[43] = Burkholderia seminalis (CBC 042)
[44] = Burkholderia seminalis (CBC 042), read-out: MIC
[45] = Burkholderia multivorans (CBC 018)
[46] = Burkholderia multivorans (CBC 018), read-out: MIC
[47] = Burkholderia cenocepacia (CBC 031)
[48] = Burkholderia cenocepacia (CBC 031), read-out: MIC
[49] = Burkholderia multivorans (CBC 019)
[50] = Burkholderia multivorans (CBC 019), read-out: MIC
[51] = Burkholderia multivorans (CBC 015)
[52] = Burkholderia multivorans (CBC 015), read-out: MIC
[53] = Burkholderia multivorans (CBC 020)
[54] = Burkholderia multivorans (CBC 020), read-out: MIC
[55] = Burkholderia cepacia (CBC 010), read-out: MIC
[56] = Burkholderia cenocepacia (CBC 029)
[57] = Burkholderia cenocepacia (CBC 029), read-out: MIC

O=C(NC(=Nc1c(F)cc(F)cc1Br)Nc1c(F)cc(F)cc1Br)C12CC3CC(CC(C3)C1)C2 [H-BDF, N—(N,N′-bis(2-bromo-4,6-difluorophenyl)carbamimidoyl)adamantane-1-carboxamide]
16: Selectivity Index (SI) [22]
15.6 µg/mL: MBC [20, 53] | MBC [23, 56]
1.95 µg/mL: MIC [1, 25] | MIC [3, 29] | MIC [4, 31] | MIC [5, 33] | MIC [7, 35] | MIC [9, 36] | MIC [12, 42] | MIC [14, 46] | MBC [15] | MIC [16, 48] | MIC [17, 50] | MBC [18] | MIC [18] | MIC [19, 52] | MBC [22]
30.2 µg/mL: MBC ([9]; Burkholderia cepacia (CBC 011))
0.97 µg/mL: MBC (B. contaminans (HNBC001)) | MIC [22]
61.2 µg/mL: MBC [11, 39]
7.8 µg/mL: MBC [2, 26]
< 0.48 µg/mL: MIC (B. contaminans (HNBC001); read-out: MIC)
3.9 µg/mL: MBC [1, 24] | MIC [2, 27] | MBC [3, 28] | MIC [6] | MBC [7, 34] | MBC [8] | MIC [10, 38] | MIC [11, 40] | MBC [12, 41] | MBC [19, 51] | MIC [20, 54] | MIC [21, 55] | MIC [23, 57]
0.48 µg/mL: MIC [8] | MIC [15]
0.96 µg/mL: MIC [13, 44]
7.81 µg/mL: MBC [4, 30] | MBC [5, 32] | MBC [6] | MBC [10, 37] | MBC [13, 43] | MBC [14, 45] | MBC [16, 47] | MBC [17, 49] | MBC ([21]; Burkholderia cepacia (CBC 010))

O=C(NC(=Nc1c(Br)cc(F)cc1Br)Nc1c(F)cc(F)cc1Br)C12CC3CC(CC(C3)C1)C2 [H-DBF, N—(N-(2-bromo-4,6-difluorophenyl)-N′-(2,6-dibromo-4-fluorophenyl)carbamimidoyl) adamantane-1-carboxamide]
> 133 µg/mL: MBC [2, 26] | MBC [8] | MBC [23, 56] | MIC [23, 57]
> 132 µg/mL: MBC [5, 32] | MBC ([9]; Burkholderia cepacia (CBC 011)) | MBC [12, 41] | MBC [14, 45] | MBC ([21]; Burkholderia cepacia (CBC 010))
133 µg/mL: MIC [2, 27] | MBC [20, 53] | MIC [21, 55]
61.2 µg/mL: MIC [6] | MIC [10, 38] | MIC [11, 40]
132 µg/mL: MBC [1, 24] | MBC [3, 28] | MBC [4, 30] | MBC [17, 49] | MBC [19, 51]
31.2 µg/mL: MBC (B. contaminans (HNBC001)) | MIC [7, 35] | MIC [16, 48]
> 61.2 µg/mL: MBC [10, 37] | MBC [11, 39]
15.6 µg/mL: MIC (B. contaminans (HNBC001); read-out: MIC)
62.5 µg/mL: MBC [7, 34] | MBC [16, 47]
2: Selectivity Index (SI) [22]
66.4 µg/mL: MIC [1, 25] | MIC [3, 29] | MIC [4, 31] | MIC [5, 33] | MIC [9, 36] | MIC [12, 42] | MBC [13, 43] | MIC [14, 46] | MIC [17, 50] | MBC [18] | MIC [18] | MIC [19, 52] | MIC [20, 54] | MBC [22] | MIC [22]
33.2 µg/mL: MIC [8] | MIC [13, 44]
16.6 µg/mL: MIC [15]
66.5 µg/mL: MBC [15]

C[C@@H](O)[C@H]1C(=O)N2C(C(=O)O)=C(S[C@@H]3CN[C@H](C(=O)N(C)C)C3)[C@H](C)[C@H]12 [Meropenem, meropenem]
> 62.5 µg/mL: MBC ([9]; Burkholderia cepacia (CBC 011))
15.6 µg/mL: MBC [3, 28]
31.2 µg/mL: MBC [20, 53]
7.81 µg/mL: MBC [2, 26] | MBC [12, 41] | MBC [17, 49]
> 16 µg/mL: MIC ([1]; Burkholderia cenocepacia, Meropenem, CLSI criteria, B. cenocepacia (CBC 023), read-out: MIC (R/I/S category)) | MIC (B. contaminans (HNBC001); Meropenem, CLSI criteria, read-out: MIC (R/I/S category)) | MIC ([4]; Burkholderia cenocepacia, Meropenem, CLSI criteria, B. cenocepacia (CBC 024), read-out: MIC (R/I/S category)) | MIC ([5]; Burkholderia multivorans, Meropenem, CLSI criteria, B. multivorans (CBC 016), read-out: MIC (R/I/S category)) | MIC ([7]; Burkholderia cenocepacia, Meropenem, CLSI criteria, B. cenocepacia (CBC 032), read-out: MIC (R/I/S category)) | MIC ([10]; Burkholderia seminalis, Meropenem, CLSI criteria, B. seminalis (CBC 040), read-out: MIC (R/I/S category)) | MIC ([11]; Burkholderia cenocepacia, Meropenem, CLSI criteria, B. cenocepacia (HE001), read-out: MIC (R/I/S category)) | MIC ([13]; Burkholderia seminalis, Meropenem, CLSI criteria, B. seminalis (CBC 042), read-out: MIC (R/I/S category)) | MIC ([16]; Burkholderia cenocepacia, Meropenem, CLSI criteria, B. cenocepacia (CBC 031), read-out: MIC (R/I/S category)) | MIC ([23]; Burkholderia cenocepacia, Meropenem, CLSI criteria, B. cenocepacia (CBC 029), read-out: MIC (R/I/S category))
3.9 µg/mL: MBC [14, 45] | MBC [19, 51] | MBC ([21]; Burkholderia cepacia (CBC 010))
< 4 µg/mL: MIC ([2]; Burkholderia multivorans, Meropenem, CLSI criteria, B. multivorans (CBC 022), read-out: MIC (R/I/S category)) | MIC ([3]; Burkholderia cenocepacia, Meropenem, CLSI criteria, B. cenocepacia (CBC 035), read-out: MIC (R/I/S category)) | MIC ([9]; Burkholderia cepacia, Meropenem, CLSI criteria, B. cepacia (CBC 011), read-out: MIC (R/I/S category)) | MIC ([12]; Burkholderia multivorans, Meropenem, CLSI criteria, B. multivorans (CBC 021), read-out: MIC (R/I/S category)) | MIC ([14]; Burkholderia multivorans, Meropenem, CLSI criteria, B. multivorans (CBC 018), read-out: MIC (R/I/S category)) | MIC ([17]; Burkholderia multivorans, Meropenem, CLSI criteria, B. multivorans (CBC 019), read-out: MIC (R/I/S category)) | MIC ([19]; Burkholderia multivorans, Meropenem, CLSI criteria, B. multivorans (CBC 015), read-out: MIC (R/I/S category)) | MIC ([20]; Burkholderia multivorans, Meropenem, CLSI criteria, B. multivorans (CBC 020), read-out: MIC (R/I/S category)) | MIC ([21]; Burkholderia cepacia, Meropenem, CLSI criteria, B. cepacia (CBC 010), read-out: MIC (R/I/S category))
< 0.48 µg/mL: MBC [6] | MIC [6] | MBC [8] | MIC [8] | MBC [15] | MIC [15] | MBC [18] | MIC [18] | MBC [22] | MIC [22]

Source: patent publication US10857110B2, “Antibacterial compounds” (CONSEJO NACIONAL DE INVESTIGACIONES CIENTÍFICAS Y TÉCNICAS …, priority 2016, dated 2020)
